Experimental findings from publication PMC10342010, “Djakonoviosides A, A1, A2, B1–B4 — Triterpene Monosulfated Tetra- and Pentaosides from the Sea Cucumber Cucumaria djakonovi: The First Finding of a Hemiketal Fragment in the Aglycones; Activity against Human Breast Cancer Cell Lines” (International Journal of Molecular Sciences, 2023) are described below.

The test system of data set [1] is human erythrocytes. Kind of data set: Hemolytic activity. It counts as cell-based. Particulars: for ED50, Erythrocytes: 1 h incubation at 37 °C, 50% hemolysis. Here is the method:
Erythrocytes were obtained from human blood (AB(IV) Rh+) by centrifugation with phosphate-buffered saline (PBS) (pH 7.4) at 4 °C for 5 min by 450 g on a LABOFUGE 400R centrifuge (Heraeus, Hanau, Germany) three times. Then, the erythrocytes residue was resuspended in ice cold phosphate saline buffer (pH 7.4) to a final optical density of 1.5 at 700 nm and kept on ice. For the hemolytic assay, 180 µL of erythrocyte suspension was mixed with 20 µL of test compound solution, as well as control, chitonoidoside L [33], in V-bottom 96-well plates. After 1 h of incubation at 37 °C, the plates were exposed to centrifugation for 10 min at 900 g in a laboratory LMC-3000 centrifuge (Biosan, Riga, Latvia). Then, 100 µL of supernatant was carefully decanted and transferred into new flat plates. The values of the lysis of the erythrocytes were found by measuring the concentration of hemoglobin in the supernatant with a Multiskan FC microplate photometer (Thermo Fisher Scientific, Waltham, MA, USA); λ = 570 nm. […] All the experiments were carried out in triple repetitions; p < 0.01.

The nature of data set [2]: Cytotoxic activity (MTS assay). Particulars: human. It counts as cell-based, human. Here is the method:
Then, the cells were incubated with 10 µL MTS ([3-(4,5-dimethylthiazol-2-yl)-5-(3-carboxymethoxyphenyl)-2-(4-sulfophenyl)-2H-tetrazolium) for 4 h, and the absorbance in each well was determined at 490/630 nm with a PHERA star FS plate reader (BMG Labtech, Ortenberg, Germany). The experiments were conducted in triplicate.

A short description of data set [3]: Cytotoxic activity (MTT assay). Particulars: human. It counts as cell-based, human. As to the method:
(§1) After incubation, the glycosides with medium were replaced by 100 μL of fresh medium. Then, 10 μL of MTT (3-(4,5-dimethylthiazol-2-yl)-2,5-diphenyltetrazolium bromide) (Sigma-Aldrich, St. Louis, MO, USA) stock solution (5 mg/mL) was added to each well, followed by incubation of the microplate for 4 h. After this procedure, 100 μL of SDS-HCl solution (1 g SDS/10 mL d-H2O/17 μ[…] HCl) was added to each well and incubated for 18 h. The absorbance of the converted dye formazan was determined with a Multiskan FC microplate photometer (Thermo Fisher Scientific, Waltham, MA, USA) at 570 nm.

In data set [4] the test system is MDA-MB-231 cells. In words: Colony formation (clonogenic) assay. The note with it: Homo sapiens; MDA-MB-231, concentration 2 μM; read-out: Inhibition of colony growth, % of the control. It counts as cell-based, human. Here is the method:
The influence of glycosides on the proliferation of MDA-MB-231 cells was analyzed by clonogenic assay. Briefly, MDA-MB-231 cells were cultured on 6-well plates at a density of 1 × 10^3 cells per well in control media (MEM media, 10% FBS, 10,000 U/mL of penicillin and 10,000 μg/mL of streptomycin) or in media supplemented with different concentrations of glycosides. Cells were incubated for one week at 37 °C with 5% CO2 until the cells in the control plates formed colonies that were visible to the eye and were of a substantial size (at least 50 cells per colony). For fixation and staining, the media were removed and the cells were washed twice with PBS. The colonies were fixed with methanol for 25 min, then washed with PBS and stained with 0.5% crystal violet solution for 25 min at room temperature. The plates were then washed with water and air dried.

The test system of data set [5] is MDA-MB-231 cells. Kind of data set: Wound scratch migration assay. It counts as cell-based, human. An excerpt: To analyze the influence of the tested compounds on tumor cell migration, MDA-MB-231 cells attached to the plate’s plastic bottom were separated by a silicone insert from special migration plates (Culture-insert 2 Well 24, ibiTreat); then, the insert was removed, leaving a gap of 500 ± 50 μm (according to the manufacturer’s data) between the cells. The cells were washed twice by PBS to remove cell debris and floating cells and loaded with a fluorescent probe, a (5,6)-carboxyfluorescein succinimidyl ester (CFDA SE) dye (LumiTrace CFDA SE kit, Lumiprobe, Moscow, Russia). The initial solution of CFDA SE at a concentration of 5 mM in DMSO was dissolved in PBS to prepare a 10 μM solution and was added to the cells for 5 min at 37 °C; then, the cells were washed twice with PBS, and fresh culture medium was added. After that, the cells were treated with various concentrations of glycosides and left for 8 and 24 h. Cells treated with culture medium only were used as control. Cell migration into the wound area was then observed under a fluorescence microscope (MIB-2-FL, LOMO, Saint Peterburg, Russia) with an objective ×10 magnification.

The test system of data set [6] is cancer cell lines. In words: Cytotoxic action against cancer cell lines (summary in words). The note with it: cancer cell lines HL-60, MCF-7, T-47D, MDA-MB-231. It counts as cell-based, human. Here is the method: All the substances were tested in concentrations from 0.1 µM to 50 µM. Cisplatin was used as positive control. The cell suspension (180 µL) and solutions (20 µL) of tested glycosides in different concentrations were injected in wells of 96-well plates (MCF-7, T-47D, MDA-MB-231, and HEK293—7 × 10^3 cells/well) and incubated at 37 °C for 24 h in an atmosphere with 5% CO2. Glycosides 1 and 2, cucumarioside A0-1, and okhotoside A1-1 at concentrations of 1.25–10.0 μM were incubated with MDA-MB-231 cells at 37 °C for 24, 48, and 72 h in an atmosphere with 5% CO2. After incubation, the glycosides with medium were replaced by 100 µL of fresh medium. Then, 10 µL of MTT (3-(4,5-dimethylthiazol-2-yl)-2,5-diphenyltetrazolium bromide) (Sigma-Aldrich, St. Louis, MO, USA) stock solution (5 mg/mL) was added to each well, followed by incubation of the microplate for 4 h. After this procedure, 100 µL of SDS-HCl solution (1 g SDS/10 mL d-H2O/17 µL 6 N HCl) was added to each well and incubated for 18 h. The absorbance of the converted dye formazan was determined with a Multiskan FC microplate photometer (Thermo Fisher Scientific, Waltham, MA, USA) at 570 nm. […] The experiments were conducted in triplicate; p < 0.05.
Then, the cells were incubated with 10 µL MTS ([3-(4,5-dimethylthiazol-2-yl)-5-(3-carboxymethoxyphenyl)-2-(4-sulfophenyl)-2H-tetrazolium) for 4 h, and the absorbance in each well was determined at 490/630 nm with a PHERA star FS plate reader (BMG Labtech, Ortenberg, Germany). The experiments were conducted in triplicate. The results were presented as the percentage of inhibition that produced a reduction in absorbance after tested glycosides treatment compared to the nontreated cells (negative control); p < 0.01.

Data set [7] in a line: Cytotoxic activity (MTT assay). In kind it is cell-based, human. The note with it: human. Here is the method: as §1
The source holds these as a separate data set.

The nature of data set [8]: Cytotoxic activity (MTT assay). It counts as cell-based, human. Particulars: human. As to the method: as §1
The source holds these as a separate data set.

The nature of data set [9]: Cytotoxic activity (MTT assay). Particulars: human. It counts as cell-based, human. As to the method:
as §1
The source holds these as a separate data set.

Counter-ions that a name gives are not always drawn.

On to `CO[C@@H]1[C@@H](O)[C@H](O[C@@H]2[C@@H](O)[C@H](O[C@H]3[C@H](O)[C@@H](O)[C@H](O[C@H]4[C@H](O[C@H]5CC[C@]6(C)[C@@H]7CCC89C(=O)O[C@@](C)([C@H](O)C(=O)CC(C)C)[C@H]8[C@@H](OC(C)=O)C[C@@]9(C)C7=CC[C@H]6C5(C)C)OC[C@@H](OS(=O)(=O)O)[C@@H]4O)O[C@@H]3C)OC[C@H]2O)O[C@H](CO)[C@H]1O` (stereo partly drawn) [djakonovioside A1 (2), 3β-O-[3-O-methyl-β-D-glucopyranosyl-(1→3)-β-D-xylopyranosyl-(1→4)-β-D-quinovopyranosyl-(1→2)-4-O-sodium sulfate-β-D-xylopyranosyl}-16β-acetoxy,22S-hydroxy,23-oxo-holost-7-en], for which, in data set [1], the “ED50, Erythrocytes” value came to 2.26 ± 0.25 µM. Also, in [2], the half-maximal inhibitory concentration (IC50) (usually the concentration needed to halve the response being measured) at 24 h came to 4.44 ± 0.37 µM. In [3], the EC50 (as a rule, the midpoint of the concentration-response curve) at 48 h was found to be 7.33 µM. This compound also showed an EC50 at 72 h in data set [3] of 6.25 µM. In addition, the inhibition at 2 µM in data set [4] was found to be 19.2 ± 0.25%; in [5] (Homo sapiens, MDA-MB-231, 2 μM, 24 h incubation, read-out: Inhibition of migration as compared to control), 79.5 ± 9.12%.

With `CO[C@@H]1[C@@H](O)[C@H](O[C@@H]2[C@@H](O)[C@H](O[C@H]3[C@H](O)[C@@H](O[C@@H]4OC[C@@H](O)[C@H](O)[C@H]4O)[C@H](O[C@H]4[C@H](O[C@H]5CC[C@]6(C)[C@@H]7CCC89C(=O)O[C@@](C)([C@H](O)C(=O)CC(C)C)[C@H]8[C@@H](OC(C)=O)C[C@@]9(C)C7=CC[C@H]6C5(C)C)OC[C@@H](OS(=O)(=O)O)[C@@H]4O)O[C@@H]3C)OC[C@H]2O)O[C@H](CO)[C@H]1O` (stereo partly drawn) [djakonovioside B1 (4), 3β-O-{3-O-methyl-β-D-glucopyranosyl-(1→3)-β-D-xylopyranosyl-(1→4)-[(1→2)-β-D-xylopyranosyl]-β-D-quinovopyranosyl-(1→2)-4-O-sodium sulfate-β-D-xylopyranosyl}-16β-acetoxy,22S-hydroxy,23-oxo-holost-7-en], the “ED50, Erythrocytes” value in data set [1] is given as 6.03 ± 0.47 µM. In addition, 20.1 ± 0.8 µM corresponded to half-maximal inhibition in data set [2] (IC50 at 24 h).

With `COC1C(O)C(CO)OC(OC2C(O)COC(OC3C(C)OC(OC4C(OC5CCC6(C)C7CCC89C(=O)OC%10(C)CC(O)(CC(C)C)OC(CC8(C)C7=CCC6C5(C)C)C%109)OCC(OS(=O)(=O)O)C4O)C(OC4OCC(O)C(O)C4O)C3O)C2O)C1O` [djakonovioside B2 (5), 3β-O-{3-O-methyl-β-D-glucopyranosyl-(1→3)-β-D-xylopyranosyl-(1→4)-[(1→2)-β-D-xylopyranosyl]-β-D-quinovopyranosyl-(1→2)-4-O-sodium sulfate-β-D-xylopyranosyl}-holost-7-en-23R,16β-hemiketal], in [1], the “Hemolytic action (in words)” value is given as “moderately hemolytic” and the “ED50, Erythrocytes” value was 16.34 ± 0.34 µM. The compound also came in with an IC50 at 24 h in [2] of 38.6 ± 1.05 µM. The “Activity against cancer cells (in words)” value in data set [6] is “inactive”.

Take `COC1C(O)C(CO)OC(OC2C(O)COC(OC3C(C)OC(OC4C(OC5CCC6(C)C7CCC89C(=O)OC%10(C)C(O)C(O)(CC(C)C)OC(CC8(C)C7=CCC6C5(C)C)C%109)OCC(OS(=O)(=O)O)C4O)C(O)C3O)C2O)C1O` [djakonovioside A2 (3), 3β-O-[3-O-methyl-β-D-glucopyranosyl-(1→3)-β-D-xylopyranosyl-(1→4)-β-D-quinovopyranosyl-(1→2)-4-O-sodium sulfate-β-D-xylopyranosyl}-22S-hydroxyholost-7-en-23R,16β-hemiketal]: in data set [1], the “Hemolytic action (in words)” value was “moderately hemolytic”. Also, the “ED50, Erythrocytes” value in data set [1] was 30.86 ± 0.97 µM. Also, the IC50 at 24 h in [2], in data set [7], in [8], in [9] and in data set [3] was > 50 µM throughout. Also, the “Activity against cancer cells (in words)” value in [6] is “inactive”.

For `CO[C@@H]1[C@@H](O)[C@H](O[C@@H]2[C@@H](O)[C@H](O[C@H]3[C@H](O)[C@@H](O)[C@H](O[C@H]4[C@H](O[C@H]5CC[C@]6(C)[C@@H]7CCC89C(=O)O[C@@](C)(C[C@@H](O)CC(C)C)[C@H]8[C@@H](OC(C)=O)C[C@@]9(C)C7=CC[C@H]6C5(C)C)OC[C@@H](OS(=O)(=O)O)[C@@H]4O)O[C@@H]3C)OC[C@H]2O)O[C@H](CO)[C@H]1O` (stereo partly drawn) [djakonovioside A (1), 3β-O-[3-O-methyl-β-D-glucopyranosyl-(1→3)-β-D-xylopyranosyl-(1→4)-β-D-quinovopyranosyl-(1→2)-4-O-sodium sulfate-β-D-xylopyranosyl}-16β-acetoxy,23S-hydroxyholost-7-en], the “ED50, Erythrocytes” value in data set [1] turned out to be 2.46 ± 0.22 µM. For the same compound, in data set [2], half-maximal inhibition (IC50 at 24 h) required 6.05 ± 0.17 µM. Moreover, in [3], it took 4.45 µM to reach a half-maximal effect (EC50 at 48 h) and the midpoint of the response, the EC50 at 72 h, lay at 3.77 µM. In addition, in data set [4], the inhibition at 2 µM worked out at 41.4 ± 3.16%. For the same compound, the “Blockage of migration in relation to control” value in [5] (MDA-MB-231, 1 μM, 24 h) is on record as 79.92 ± 0.27%.

As for `COC1C(O)C(CO)OC(OC2C(O)COC(OC3C(C)OC(OC4C(OC5CCC6(C)C7CCC89C(=O)OC%10(C)C(O)C(O)(CC(C)C)OC(CC8(C)C7=CCC6C5(C)C)C%109)OCC(OS(=O)(=O)O)C4O)C(OC4OCC(O)C(O)C4O)C3O)C2O)C1O` [djakonovioside B4 (7), 3β-O-{3-O-methyl-β-D-glucopyranosyl-(1→3)-β-D-xylopyranosyl-(1→4)-[(1→2)-β-D-xylopyranosyl]-β-D-quinovopyranosyl-(1→2)-4-O-sodium sulfate-β-D-xylopyranosyl}-22S-hydroxyholost-7-en-23R,16β-hemiketal], the “Hemolytic action (in words)” value in data set [1] is “moderately hemolytic”. Also, the “ED50, Erythrocytes” value in [1] came out at 17.07 ± 1.15 µM. The IC50 at 24 h in [2], in data set [7], in data set [8], in [9] and in data set [3] was > 50 µM each time. For the same compound, the “Activity against cancer cells (in words)” value in data set [6] is “inactive”.
